Where “and” joins values, the source holds several entries; their conditions need not be identical. Equal entries are not always repeated. Structures can show the parent of a compound that is named as a salt.

8 compounds from patent US12161763B2, “Formulation and method for increasing oral bioavailability of drugs” (Yissum Research Development Company of the Hebrew …, priority 2012, dated 2024) can be followed below.

In one series the test system is Male Wistar rats. The series can be described thus: AM pharmacodynamic study: heart rate and IBI by radiotelemetry. In kind it is in vivo. The note with it: 12.5 mg/kg AM PO. As to the method:
The deferential effect of AM on heart rate was used as a pharmacodynamic marker for assessment of AM pharmacological effect following oral administration.
Male Wistar rats (Harlan, Israel) weighing 300-350 g were kept under a 12 h light/dark cycle with free access to water and food (standard rat chow) Animals were anesthetized for the period of surgery by intraperitoneal injection of 1 mL/kg of ketamine-xylazine solution (90/10%, respectively).
An ECG transmitter (TA11CA-F40, Data Sciences International Inc., St. Paul, MN) was implanted subcutaneously over the scapula with the leads in a Lead 2 configuration by tunneling subcutaneously from the dorsal incision using a trocar. The negative lead was placed in the area of the right shoulder and the positive lead was placed immediately to the left of the xyphoid space and caudal to the rib cage.
The signal from the transmitters was received by two RLA 2000 receivers and transmitted via a Data Exchange Matrix to a Dataquest PCI card. The data were recorded continuously during the whole experiment at 1000 Hz rate with no filter cutoff and full scale at 10 mV.
The collected data were interpreted by Dataquest A.R.T program. The IBI (R-R duration, sec) and HR (bpm) were calculated in average values of each 10 min of the recording.
At the beginning the baseline were recorded at least for 120 min. After establishing stable recording the rats were treated by oral gavage. During the treatment the data was collected and afterwards extracted in further analysis.
Two groups of three rats received the treatment in a cross over manner, meaning each rat received each treatment once. The treatments were as follows:
Blank nano-lipospheres not containing AM was freshly prepared as described above and was administered by oral gavage. […] .
In order to inspect separately the effect of each delivery method, we first calculated the mean baseline IBI duration throughout 60 min prior the administration. The drug was administered at t=60 min Post administration the data was calculated throughout 180 min. The net change was calculated as the percentage of the change for each drug administration mode relative to the baseline recording. The changes from base-line in two parameters: IBI and HR were analyzed in two points: 90 min. post administration (mid phase) and 180 min post administration (end phase) (Tables 9A-B and 10A-B, respectively).

Series [1] is described as follows: Compatibility of BCS class II and IV drugs with the piperine-PNL pre-concentrate. In kind it is physicochemical. From the text:
In order to determine the compatibility of the developed PNL delivery system with various lipophilic drugs, we have tested the ability of the piperine-PNL to dissolve various BCS class II and IV drugs.

Another series deals with CYP3A4. The following applies: 120 min incubation in isolated rat microsomes.
Series [2] in a line: CBD nano lipospheres relative oral bioavailability study. In kind it is in vivo. The following applies: male, Wistar, rat, plasma; PO 15 mg/kg CBD, rats. As to the method: The obtained CBD concentration was 3 mg/mL. […] The control group received (15 mg/kg) CBD solution in propylene glycol/EthOH/water 30/30/40 respectively (1 mg/mL) (n=6).
Series [3] in a line: CBD relative oral bioavailability: CBD, CBD-PNL and CBD-PNL with absorption enhancers. The following applies: male, Wistar, rat, in vivo; PO CBD 15 mg/kg; Piperine 10 mg/kg, rats; mean ± S.E.M. As to the method: The obtained CBD and piperine concentrations were 3 mg/mL and 2 mg/ml, respectively. […] The control groups received (15 mg/kg) CBD solution in propylene glycol/EthOH/water 30/30/40 respectively (1 mg/mL) (n=6) or CBD-PNL ((15 mg/kg of CBD).

Series [4] in a line: Absorption enhancer pro-nano-liposphere development: dissolution in pre-concentrate and precipitation on dilution with water. The format is physicochemical. The note with it: for precipitation of the absorption enhancer upon dilution with water phase: curcumin 1% and 2%, resveratrol, piperine 2%. As to the method:
The development of each of the formulations, in terms of a selection of the different components, was conducted by the following method. A combination of certain components was used as a reference starting point (as per Table 16). The choice of these certain triglyceride, organic amphiphilic co-solvent and the combination of surfactants in the detailed portions in Table 16 was based on the inventors' previous experience with various lipophilic drugs. Thus, an absorption enhancer was added to this specified prototype formulation to form a pre-concentrate.

Series [5] is described as follows: Tacrolimus oral bioavailability study. The format is in vivo, Male Wistar rats.
Series [6] can be described thus: Talinolol relative oral bioavailability study. The format is in vivo. The note with it: male, Wistar, rat, plasma; PO 4 mg/kg talinolol, rats. As to the method:
The obtained talinolol concentration was 1 mg/mL. […] The control group received 4 mg/kg talinolol dissolved in PEG400:water:ethanol 25:60:15 to obtain 1 mg/mL concentration (n=6).

Where [7] appears, read: 90 min post administration, HCl.
Where [8] appears, read: 180 min post administration, HCl.

As for `CCCCc1oc2ccccc2c1C(=O)c1cc(I)c(OCCN(CC)CC)c(I)c1` [AM, Amiodarone HCl], in the series with Male Wistar rats (90 min post administration), the “HEART RATE (BPM) MID PHASE” value amounted to 452.916 ± 20.01 BPM and the “IBI (sec) MID PHASE” value worked out at 0.1435 ± 0.008 s. Further, in the series with Male Wistar rats (setting [7]), the “HEART RATE CHANGE % (percentage from baseline), mid phase” value was 131.28% and 131.28 (*) %; the “IBI CHANGE % (percentage from baseline), mid phase” value is 88.86% and 88.86 (*) %. The “IBI (sec) END PHASE” value with Male Wistar rats (180 min post administration) stood at 0.143 ± 0.007 s. Further, in the series on Male Wistar rats (setting [8]), the “HEART RATE (BPM) END PHASE” value was 443.071 ± 11.06 BPM and 443.07 ± 11.06 BPM; the “HEART RATE CHANGE % (percentage from baseline), end phase” value is 128.43% and 128.43 (*) %; the “IBI CHANGE % (percentage from baseline), end phase” value is 89.79% and 89.79 (*) %. Besides, in the series with Male Wistar rats (phase not given), the “heart rate following administration” value came to 452.916±20.01 BPM and the “mean IBI following administration” value was determined as 0.143 ± 0.0074 s.

On to `C[C@@H]1[C@H](O)[C@@H](C)/C=C/C=C/C=C/C=C/C=C/C=C/C=C/[C@H](O[C@@H]2O[C@H](C)[C@@H](O)[C@H](N)[C@@H]2O)C[C@@H]2O[C@](O)(C[C@@H](O)C[C@@H](O)[C@H](O)CC[C@@H](O)C[C@@H](O)CC(=O)O[C@H]1C)C[C@H](O)[C@H]2C(=O)O` [Amphotericin B], for which the “compatibility with the pre-concentrate” value in series [1] is “incompatible”.

`C[C@]12CC[C@H]3[C@@H](CCC4=CC(=O)CC[C@@]43C)[C@@H]1CC[C@@H]2O` [testosterone] returned a testosterone remaining with CYP3A4 of 75.39±8.82%.

In series [2], `C=C(C)[C@@H]1CCC(C)=C[C@H]1c1c(O)cc(CCCCC)cc1O` [CBD, Cannabidiol] showed an AUC of 259 ng·h/mL and a Cmax of 105 ± 103 ng/mL. In series [3], the AUC stood at 90 ± 21 ng·h/mL and the Cmax is 39 ± 8 ng/mL.

For `COc1cc(/C=C/C(=O)CC(=O)/C=C/c2ccc(O)c(OC)c2)ccc1O` [curcumin], the “precipitation of the absorption enhancer upon dilution with water phase” value in series [4] was “precipitation”.

Consider `Oc1ccc(C=Cc2cc(O)cc(O)c2)cc1` [resveratrol], for which, in series [4], the “dissolution of the absorption enhancer in the pre-concentrate / appearance of pre-concentrate” value was “homogeneous and visually clear pre-concentrate”; the “precipitation of the absorption enhancer upon dilution with water phase” value is “No precipitation”.

Turning to `C=CC[C@@H]1/C=C(\C)C[C@H](C)C[C@H](OC)[C@H]2O[C@@](O)(C(=O)C(=O)N3CCCC[C@H]3C(=O)O[C@H](/C(C)=C/[C@@H]3CC[C@@H](O)[C@H](OC)C3)[C@H](C)[C@@H](O)CC1=O)[C@H](C)C[C@@H]2OC` [tacrolimus], the “Coefficient of variation (% CV) of plasma tacrolimus concentrations” value in series [5] (0.25 h after PO 1 mg/kg) worked out at 95.1%; in series [5] (0.5 h after PO 1 mg/kg), 90.8%; in series [5] (0.75 h after PO 1 mg/kg) it was 73.2%; in series [5] (1 h after PO 1 mg/kg), 83.5%; in series [5] (2 h after PO 1 mg/kg) it was 103.5%.

As to `CC(C)(C)NCC(O)COc1ccc(NC(=O)NC2CCCCC2)cc1` (stereo not drawn) [Talinolol, talinolol], in series [6], the AUC was determined as 11.9 ng·h/mL, the highest level (Cmax) was 5.55 ± 1.65 ng/mL and the half-life is 1.15 ± 0.19 h.

As usually defined, the AUC is concentration integrated over time. In general, Cmax refers to the highest concentration seen after dosing. Usually half-life stands for the time needed for the level to fall by half in the phase considered. A higher half-life goes with slow decline.
